# Test results published in US7663000B2, “Quinoneimines of malonic acid diamides” (A-Viral ASA, priority 2003, dated 2010).
# Experiment: Stability in aqueous solution, analysed by 1H NMR
# Assay type: physicochemical
# Description: The product of Example 2 (PHBPQ, N-phenyl-2-hydroxy-2 butyl 1,3-propanal quinoneimine) was examined for stability in aqueous solution, followed by analysis by ^1H NMR spectroscopy.
substance,measurement,setting,value
"N-phenyl-2-hydroxy-2 butyl 1,3-propanal quinoneimine [PHBPQ]",stability compared with 4-OH-OPB,pH 7.4,more stable at pH 7.4 than 4-OH-OPB
same,re-conversion into 4-OH-OPB,when the solution was acidified,not re-converted into 4-OH-OPB
